Test results reported in PMC10344917, “Affinity and cooperativity modulate ternary complex formation to drive targeted protein degradation” (Nature Communications, 2023).
Read-outs that look alike come from different tables or passages of the source.

Key:
SMARCA2-NanoLuc = biological target: T1, SMARCA2-NanoLuc (Homo sapiens, UniProt P51531); experiment: NanoBRET target engagement assay, live and permeabilized HEK293 cells (SMARCA2); assay type: cell-based; details: SMARCA2 NanoBRET TE
T1 construct: expressed in transfected cells; host or cells: HEK293
T1 sequence (P51531 whole entry): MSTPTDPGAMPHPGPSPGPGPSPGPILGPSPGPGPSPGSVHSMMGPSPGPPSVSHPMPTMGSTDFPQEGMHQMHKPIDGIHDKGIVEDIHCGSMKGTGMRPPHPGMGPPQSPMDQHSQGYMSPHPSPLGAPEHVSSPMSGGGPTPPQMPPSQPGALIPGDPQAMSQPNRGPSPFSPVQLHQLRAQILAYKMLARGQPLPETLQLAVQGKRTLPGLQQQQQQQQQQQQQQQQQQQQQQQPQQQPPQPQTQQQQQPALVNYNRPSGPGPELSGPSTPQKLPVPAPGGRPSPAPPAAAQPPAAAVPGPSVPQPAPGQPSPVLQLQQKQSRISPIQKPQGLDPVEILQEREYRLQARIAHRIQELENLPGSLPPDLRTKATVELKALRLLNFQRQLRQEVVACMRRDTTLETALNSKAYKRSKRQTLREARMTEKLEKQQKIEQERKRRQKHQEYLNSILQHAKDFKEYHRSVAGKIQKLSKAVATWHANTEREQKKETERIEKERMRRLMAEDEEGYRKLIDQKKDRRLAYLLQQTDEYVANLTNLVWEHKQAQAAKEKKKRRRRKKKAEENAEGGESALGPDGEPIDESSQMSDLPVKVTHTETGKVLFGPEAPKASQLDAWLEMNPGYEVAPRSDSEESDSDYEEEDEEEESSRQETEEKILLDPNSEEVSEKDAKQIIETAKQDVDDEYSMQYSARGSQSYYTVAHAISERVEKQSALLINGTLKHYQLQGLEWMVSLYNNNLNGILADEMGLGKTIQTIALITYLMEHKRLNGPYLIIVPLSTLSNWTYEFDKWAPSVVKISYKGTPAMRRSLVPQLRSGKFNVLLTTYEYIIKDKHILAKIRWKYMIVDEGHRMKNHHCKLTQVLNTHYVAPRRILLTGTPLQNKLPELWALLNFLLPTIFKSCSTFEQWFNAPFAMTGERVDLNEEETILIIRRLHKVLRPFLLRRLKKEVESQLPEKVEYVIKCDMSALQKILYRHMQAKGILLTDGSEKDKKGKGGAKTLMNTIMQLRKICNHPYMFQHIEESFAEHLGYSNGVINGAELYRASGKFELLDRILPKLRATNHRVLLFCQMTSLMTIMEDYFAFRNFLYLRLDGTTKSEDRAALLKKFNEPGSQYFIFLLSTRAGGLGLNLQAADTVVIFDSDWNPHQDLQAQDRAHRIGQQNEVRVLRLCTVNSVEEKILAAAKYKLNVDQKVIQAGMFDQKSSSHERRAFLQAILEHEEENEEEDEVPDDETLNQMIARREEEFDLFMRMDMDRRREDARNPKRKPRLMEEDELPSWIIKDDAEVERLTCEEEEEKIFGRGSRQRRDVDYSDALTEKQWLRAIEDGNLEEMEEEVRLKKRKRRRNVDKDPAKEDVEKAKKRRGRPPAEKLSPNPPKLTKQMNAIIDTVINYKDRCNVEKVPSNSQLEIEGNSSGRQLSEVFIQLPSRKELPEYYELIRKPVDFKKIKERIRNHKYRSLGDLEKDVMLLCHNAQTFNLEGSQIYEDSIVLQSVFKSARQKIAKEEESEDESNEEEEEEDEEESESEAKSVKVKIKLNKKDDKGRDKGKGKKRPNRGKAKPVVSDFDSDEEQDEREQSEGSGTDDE
Procedure: We employed a NanoBRET-based target engagement (TE) assay as reported earlier^7 for evaluating PROTACs relative permeability. In summary, live and permeabilized HEK293 cells with SMARCA2 or BRD4-NanoLuc were used for measuring IC50 values of different PROTACs. The relative shift in the IC50 was evaluated as relative binding affinity (RBA) by taking the ratio of IC50 values of live and permeabilized cells. Availability index (AI), which is a surrogate for permeability can be calculated by taking a ratio of RBA of compounds to permeable benchmark molecules. We used SMARCA bromodomain binding ligand^8 for SMARCA2 PROTACs and JQ1^9, 10 for BRD4 PROTACs as benchmark molecules.
Relative Binding Affinity (RBA) = Live-cell TE IC50 / Permeabilized-cell TE IC50
Availability Index (AI) = RBAtest cmpd / RBApermeable benchmark
Availability Index (AI) greater than one is indicative of reduced permeability compared to the benchmark.

SMARCA2^BD = biological target: T2, SMARCA2^BD (Homo sapiens, UniProt P51531); experiment: SPR binary binding of PROTAC to SMARCA2-functionalized surface; details: 1:1 Langmuir binding model, SEM N=3 or SD N=2, read-out: KTP (binary affinity PROTAC / SMARCA2)
T2 construct: SMARCA2^BD 1373–1511 ∆1400–1417; made in house
T2 sequence (P51531 1373-1493 isoform P51531-2): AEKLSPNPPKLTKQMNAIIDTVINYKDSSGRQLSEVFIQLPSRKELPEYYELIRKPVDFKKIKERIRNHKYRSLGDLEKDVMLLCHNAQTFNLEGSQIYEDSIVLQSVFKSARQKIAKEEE
Procedure: PROTACs (10 mM stocks in 100% DMSO) were diluted to 400 nM in a running buffer (20 mM Tris pH 7.5, 200 mM NaCl, 0.02% P20). This stock solution was then serially diluted in the running buffer containing final 2% DMSO. Solutions were injected in multi-cycle kinetic format without regeneration (contact time 60 s, flow rate 80 μL/min, dissociation time 120 s) using a stabilization period of 30 s and syringe wash (50% DMSO) between injections onto a high-density VBC-functionalized surface. For SMARCA2 analysis, biotinylated proteins were introduced on a Series S streptavidin (SA) sensor chip at high-density (3000-4000 RU).
(§1) Raw sensorgrams were processed by performing double reference subtraction, solvent correction, and analysis was done using Biacore Insight Evaluation Software. Kinetic analysis was performed by fitting data to a 1:1 Langmuir interaction model and a steady-state affinity model was used to evaluate equilibrium binding affinity.

SMARCA2 = biological target: T3, SMARCA2 (Homo sapiens, UniProt P51531); experiment: SMARCA2 degradation time course in A375 cells (MSD); assay type: cell-based; details: single concentration at or near maximal activity
T3 construct: endogenous in cells; host or cells: A375
T3 sequence (P51531 whole entry): as the sequence (P51531 whole entry) above
From the text: This characteristic has been described as cooperativity (α > 1) and likely results from favorable PPIs present in the ternary complex. […] To measure the rate of protein degradation, we treated A375 cells with a single concentration of each PROTAC and measured the decrease in target abundance over time as shown in Figs. 4b and5b.
MSD electrochemiluminescence signals were subtracted by the average background signal from wells with lysis buffer alone. Normalized MSD values (POC) for individual compound treated wells were acquired by dividing background-subtracted assay signal by signal from vehicle control wells (cells + 0.1% DMSO) and multiplying by 100. This POC data was graphed using a nonlinear regression curve fit xy analysis and a log(inhibitor) vs response —variable slope (four parameter) model for dose response curves (Graphpad Prism 9, San Diego, CA, USA). To calculate area under the curve, all points on the curve were connected and vertical lines were drawn from each point down to y = 0, generating a series of trapezoids. The area of each trapezoid was determined using the equation A = (1/2)(h)(b1 + b2), where h = 1 (distance between points), b1 = POC of the first point and b2 = POC of the second point. The sum of all trapezoids provides an approximate area under the curve (AUC). For half-life (t1/2) determination in time course studies, a one-phase decay model was used for curve fitting and the time at which the curve crossed 50 POC was determined through interpolation (Graphpad Prism 9, San Diego, CA, USA). Additionally initial rate of degradation was determined by multiplying 100 with rate constant (τ = 0.693/t1/2).

VHL/EloB/EloC (VBC) = biological target: T4, VHL/EloB/EloC (VBC) (Homo sapiens, UniProt P40337); experiment: SPR binary binding of PROTAC to VBC-functionalized surface; details: SPR; error SEM, N = 3; read-out: KLP (binary binding affinity between E3 ligase VHL and PROTAC)
T4 construct: VHL (54-213), ElonginB (17-112) ElonginC (1-104); made in house
T4 sequence (Q15369 17-112): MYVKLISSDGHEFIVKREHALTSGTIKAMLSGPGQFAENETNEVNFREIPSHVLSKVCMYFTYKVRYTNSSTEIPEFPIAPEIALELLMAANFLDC
T4 sequence (Q15370 1-104, further chain): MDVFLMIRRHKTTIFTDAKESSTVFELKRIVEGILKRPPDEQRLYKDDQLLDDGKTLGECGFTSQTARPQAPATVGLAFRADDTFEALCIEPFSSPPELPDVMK
T4 sequence (P40337 54-213): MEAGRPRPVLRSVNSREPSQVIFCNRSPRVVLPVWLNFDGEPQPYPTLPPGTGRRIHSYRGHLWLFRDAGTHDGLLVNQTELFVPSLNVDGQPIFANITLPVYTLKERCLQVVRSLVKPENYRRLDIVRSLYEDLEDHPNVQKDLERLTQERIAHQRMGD

[1] = biological target: T5, VBC / SMARCA2^BD ternary complex (Homo sapiens, UniProt P40337+P51531); experiment: SPR ternary complex binding, VBC surface with preformed PROTAC/SMARCA2 bromodomain complex; details: for Kd: SPR, VHL, PROTAC, error SEM, N = 3, read-out: KLPT (ternary complex binding affinity)
T5 construct: VHL (54-213), ElonginB (17-112) ElonginC (1-104); SMARCA2^BD 1373–1511 ∆1400–1417; His6 (N, cleaved yes); made in house
T5 sequence (P40337 54-213): as above
T5 sequence (P51531 other isoform, or with tags, fused parts or gaps): as the sequence (P51531 1373-1493 isoform P51531-2) above
T5 sequence (Q15370 1-104, further chain): as the sequence (Q15370 1-104, further chain) above
T5 sequence (Q15369 17-112, further chain): as the sequence (Q15369 17-112) above
Procedure: SPR experiments were performed on a Biacore 8 K or T200 instrument (Cytiva). […] The running buffer during immobilization was PBS with 0.005% P20. Either high-density (3000-4000 RU) or low-density (300-400 RU) VBC-functionalized surfaces were created, followed by equilibration in the running buffer for 3 h.
PROTACs (10 mM in 100% DMSO) were initially prepared at 200 nM in a running buffer (20 mM Tris pH 8.0, 250 mM NaCl, 1 mM TCEP, 0.01% P20, 0.2 mg/ml BSA) with a concentration of 2% DMSO. This solution was mixed at 1:1 ratio with a solution of 5 μM of the SMARCA2 or BRD4 bromodomain protein in the running buffer. This complex was then serially diluted in the running buffer containing 2.5 μM SMARCA2 or BRD4 and 2% DMSO (5-point five-fold serial dilution). For ternary experiments, solutions were injected sequentially in single-cycle kinetic format without regeneration (contact time 60 s, flow rate 80 μL/min, dissociation time 300 s) using a stabilization period of 60 s and syringe wash (50% DMSO) between injections onto a low-density VBC-functionalized surface.
as §1

[2] = live HEK293 cells, read-out: Live-Cell TE IC50
[3] = permeabilized HEK293 cells, read-out: Permeabilized-Cell TE IC50

IC50 (SMARCA2-NanoLuc; [2]) | IC50 (SMARCA2-NanoLuc; [3]) | Kd (SMARCA2^BD) | Initial Degradation Rate (SMARCA2) | Kd (VHL/EloB/EloC (VBC)) | α (cooperativity, KLP/KLPT) [1] | Kd [1] | SMILES
600 nM | 50 nM | 49 ± 12 nM | 1.34 %/min | 7 ± 2 nM | 0.26 | 27 ± 3 nM | Cc1ncsc1-c1ccc([C@H](C)NC(=O)[C@@H]2C[C@@H](O)CN2C(=O)[C@@H](NC(=O)CCc2ccnc(N3CCN(c4cc(-c5ccccc5O)nnc4N)CC3)c2)C(C)(C)C)cc1 [Compound 8, (2S,4R)-1-((S)-2-(3-(2-(4-(3-Amino-6-(2-hydroxyphenyl)pyridazin-4-yl)piperazin-1-yl)pyridin-4-yl)propanamido)-3,3-dimethylbutanoyl)-4-hydroxy-N-((S)-1-(4-(4-methylthiazol-5-yl)phenyl)ethyl)pyrrolidine-2-carboxamide]
2370 nM | 5040 nM | 745 ± 134 nM | 0.56 %/min | 60 ± 5 nM | 0.24 | 250 ± 30 nM | Cc1ncsc1-c1ccc([C@H](C)NC(=O)[C@@H]2C[C@@H](O)CN2C(=O)[C@@H](NC(=O)c2ccnc(N3CCN(c4cnnc(-c5ccccc5O)c4)CC3)c2)C(C)(C)C)cc1 [Compound 10, N-((S)-1-((2S,4R)-4-Hydroxy-2-(((S)-1-(4-(4-methylthiazol-5-yl)phenyl)ethyl)carbamoyl)pyrrolidin-1-yl)-3,3-dimethyl-1-oxobutan-2-yl)-2-(4-(6-(2-hydroxyphenyl)pyridazin-4-yl)piperazin-1-yl)isonicotinamide]
